This note sets out measurements from US8114886B2, “Pyridylmethylsulfone derivative” (Daiichi Sankyo Company, Limited, priority 2005, dated 2012).

The subject of the first data set is β-amyloid protein (Aβ) secreted by E35 cells (H4 cells with APP751 gene). Kind of data set: Screening system using E35 cells for inhibition of production/secretion of β-amyloid protein (sandwich ELISA of Aβ in culture medium). Format: cell-based, human. The note with it: Homo sapiens, 24 hours with compound, Aβ in culture supernatant by ELISA, read-out: Inhibitory Activity for Production of A(EC50). As for the experimental part: The activity of the compound inhibiting β-amyloid protein production was measured on E35 cells prepared by introducing APP751 gene, a gene of a human wild type β-amyloid protein precursor protein, to human glioma cells (H4 cells), by quantifying the amount of β-amyloid protein (Aβ) secreted to the culture medium by means of a sandwich type Enzyme-Linked Immunosorbent Assay (ELISA) method.
That is, E35 cells inoculated on a 96-well plate were cultured in an incubator at 37° C. which was maintained at equilibrium with 5% carbon dioxide, using Dulbecco's Modified Eagle's Medium containing inactivated 10% fetal bovine serum as the culture medium. After 24 hours from the inoculation, a test compound dissolved in a DMSO solution was added. The DMSO solution of the test compound was prepared at a concentration of 2000 times of the final concentration, such that the DMSO concentration in the culture medium would be 0.05%. After culturing for another 24 hours, the culture supernatant was recovered, and this was added to a 96-well plate for ELISA onto which a monoclonal antibody against Aβ, 25-1, was solid-phased. The plate was incubated at 4° C. for 16 to 20 hours. The plate was washed with phosphate buffer solution (pH 7.4), and then a biotinylated monoclonal antibody against Aβ, MA32-40, was added thereto. The plate was left to stand at 4° C. for 2 hours. The plate was washed again with phosphate buffer solution, and then alkaline phosphatase-conjugated streptavidin was added to conjugate streptavidin to biotin. Subsequently, the plate was washed with phosphate buffer solution. To this, Blue Phos (Kirkegaard & Perry Laboratories, Inc.) was added. After incubating the plate for an appropriate time, the reaction was terminated with an acid, and the absorbance for each well was measured. The amount of Aβ contained in the culture supernatant was determined from a calibration curve which was produced separately, and the amount was compared with that of control cells to which the compound was not added. Thus, the concentration at which 50% of the Aβ production is inhibited (EC50 value) was calculated. In addition, the 25-1 antibody and MA32-40 antibody used in ELISA were mouse monoclonal antibodies derived from the hybridoma cell clone lines, which were each produced and selected according to a standard method using Aβ25-35 and Aβ1-8 as antigens, respectively, and which specifically recognize their respective antigens. […]
The scores indicate ++++ for the case where EC50 was 5 nM or less; +++ for the case where EC50 was 5 to 50 nM; ++ for the case where EC50 was 50 to 500 nM; and + for the case where EC50 was 500 nM to 5 μM.
Background: ELISA stands for enzyme-linked immunosorbent assay.
Broadly, the EC50 is the concentration giving half of the maximal effect. For `Cc1cc(C(=O)N(C)C)ncc1C(c1cc(F)ccc1F)[S+]([O-])c1ccc(C(F)(F)F)nc1` (stereo not drawn) [Example 28B, 5-[(2,5-difluorophenyl)[[6-(trifluoromethyl)pyridin-3-yl]sulfinyl]methyl]-N,N,4-trimethylpyridine-2-carboxamide], the EC50 lay in the range of 500 to 5000 nM.

Consider `Cc1cc(C(=O)NCCO)ncc1C(c1cc(F)ccc1F)S(=O)(=O)c1ccc(C(F)(F)F)cn1` (stereo not drawn) [Example 55, 5-[(2,5-Difluorophenyl)[[5-(trifluoromethyl)pyridin-2-yl]sulfonyl]methyl]-N-(2-hydroxyethyl)-4-methylpyridine-2-carboxamide], for which the EC50 lay within 50 to 500 nM.

In the case of `Cc1cc(S(=O)(=O)C(c2cnc(C(=O)NCCO)cc2C)c2cc(F)ccc2F)ccc1F` (stereo not drawn) [Example 71, 5-[(2,5-Difluorophenyl)[(4-fluoro-3-methylphenyl)sulfonyl]methyl]-N-(2-hydroxyethyl)-4-methylpyridine-2-carboxamide], the EC50 is 5 to 50 nM.

As to `CC(=O)NCCNC(=O)c1cc(C)c(C(c2cc(F)ccc2F)S(=O)(=O)c2ccc(F)cc2)cn1` (stereo not drawn) [Example 83, N-[2-(acetylamino)ethyl]-5-[(2,5-difluorophenyl)[(4-fluorophenyl)sulfonyl]methyl]-4-methylpyridine-2-carboxamide], the EC50 is at most 5 nM.

As for `Cc1cc(C(N)=O)ncc1C(c1cc(F)ccc1F)[S+]([O-])c1ccc(F)cc1` (stereo not drawn) [Example 24, 5-[(2,5-Difluorophenyl) [(4-fluorophenyl)sulfinyl]methyl]-4-methylpyridine-2-carboxamide], the EC50 was 5 to 50 nM.

For the compound `Cc1cc(S(=O)(=O)C(c2cnc(C(=O)NCCO)cc2C)c2cc(F)ccc2F)ccc1Cl` (stereo not drawn) [Example 67, 5-[[(4-Chloro-3-methylphenyl)sulfonyl](2,5-difluorophenyl)methyl]-N-(2-hydroxyethyl)-4-methylpyridine-2-carboxamide], the EC50 was at most 5 nM.

With `Cc1cc(C(N)=O)ncc1C(c1cc(F)ccc1F)S(=O)(=O)c1ccc(C(F)(F)F)nc1` (stereo not drawn) [Example 32, 5-[(2,5-Difluorophenyl)[[6-(trifluoromethyl)pyridin-3-yl]sulfonyl]methyl]-4-methylpyridine-2-carboxamide], the EC50 was in the range of 5 to 50 nM.

As for `Cc1cc(C(=O)N(C)C)ncc1C(c1cc(F)ccc1F)S(=O)(=O)c1ccc(C(F)(F)F)nc1` (stereo not drawn) [Example 28A, 5-[(2,5-Difluorophenyl) [[6-(trifluoromethyl)pyridin-3-yl]sulfonyl]methyl]-N,N,4-trimethylpyridine-2-carboxamide], the EC50 is 500 to 5000 nM.

`Cc1cc(C(N)=O)ncc1C(c1c(F)ccc(F)c1F)S(=O)(=O)c1ccccc1` (stereo not drawn) [Example 105, 4-Methyl-5-[(phenylsulfonyl)(2,3,6-trifluorophenyl)methyl]pyridine-2-carboxamide]: the EC50 is at most 5 nM.

`Cc1cc(C(=O)NCCO)ncc1C(c1cc(F)ccc1F)S(=O)(=O)c1ccccc1` (stereo not drawn) [Example 59, 5-[(2,5-Difluorophenyl)(phenylsulfonyl)methyl]-N-(2-hydroxyethyl)-4-methylpyridine-2-carboxamide]: the EC50 lay within 5 to 50 nM.

Take `Cc1cc(C(N)=O)ncc1C(c1cc(F)ccc1F)S(=O)(=O)c1ccc(F)cc1` (stereo not drawn) [Example 15, 5-[(2,5-Difluorophenyl)[(4-fluorophenyl)sulfonyl]methyl]-4-methylpyridine-2-carboxamide]: the EC50 is at most 5 nM.

With `Cc1cc(C(N)=O)ncc1C(c1c(F)ccc(F)c1F)[S+]([O-])c1ccc(F)cc1` (stereo not drawn) [Example 38, 5-[[(4-Fluorophenyl)sulfinyl](2,3,6-trifluorophenyl)methyl]-4-methylpyridine-2-carboxamide], the EC50 was in the range of 5 to 50 nM.

On to `Cc1cc(C(N)=O)ncc1C(c1c(F)ccc(F)c1F)S(=O)(=O)c1ccc(F)cc1` (stereo not drawn) [Example 39, 5-[[(4-Fluorophenyl)sulfonyl](2,3,6-trifluorophenyl)methyl]-4-methylpyridine-2-carboxamide], for which the EC50 was at most 5 nM.

Turning to `Cc1cc(C(=O)N(C)C)ncc1C(c1c(F)ccc(F)c1F)[S+]([O-])c1ccc(F)cc1` (stereo not drawn) [Example 36B, 5-[[(4-fluorophenyl)sulfinyl](2,3,6-trifluorophenyl)methyl]-N,N,4-trimethylpyridine-2-carboxamide], the EC50 lay within 500 to 5000 nM.

In the case of `Cc1cc(C(=O)NCCO)ncc1C(c1cc(F)ccc1F)S(=O)(=O)c1ccc(C(F)(F)F)nc1` (stereo not drawn) [Example 30, 5-[(2,5-Difluorophenyl) [[6-(trifluoromethyl)pyridin-3-yl]sulfonyl]methyl]-N-(2-hydroxyethyl)-4-methylpyridine-2-carboxamide], the EC50 is at most 5 nM.

`Cc1cc(C(=O)N(C)C)ncc1C(c1c(F)ccc(F)c1F)S(=O)(=O)c1ccc(F)cc1` (stereo not drawn) [Example 36A, 5-[[(4-Fluorophenyl)sulfonyl](2,3,6-trifluorophenyl)methyl]-N,N,4-trimethylpyridine-2-carboxamide]: the concentration giving a half-maximal response (EC50) fell in the range of 5 to 50 nM.

With `CNC(=O)c1cc(C)c(C(c2cc(F)ccc2F)[S+]([O-])c2ccc(F)cc2)cn1` (stereo not drawn) [Example 21, 5-[(2,5-Difluorophenyl)[(4-fluorophenyl)sulfinyl]methyl]-N,4-dimethylpyridine-2-carboxamide], the EC50 lay in the range of 5 to 50 nM.

Regarding `Cc1ccc(S(=O)(=O)C(c2cnc(C(=O)NCCO)cc2C)c2cc(F)ccc2F)cc1` (stereo not drawn) [Example 63, 5-[(2,5-Difluorophenyl)[(4-methylphenyl)sulfonyl]methyl]-N-(2-hydroxyethyl)-4-methylpyridine-2-carboxamide], the EC50 is at most 5 nM.

Tested on in a further data set: not given
Experiment: not given
Settings: not given
The term melting point denotes the temperature, or range, at which the solid turns liquid. Consider `Cc1cc(C(=O)NCO)ncc1C(c1c(F)ccc(F)c1F)S(=O)(=O)c1ccc2ccoc2c1` (stereo not drawn) [Example 127, 5-[(1-Benzofuran-6-ylsulfonyl)(2,3,6-trifluorophenyl)methyl]-N-(hydroxymethyl)-4-methylpyridine-2-carboxamide], for which the melting point is 185 to 186 °C (dec.).

With `Cc1cc(C(=O)NCOCCO)ncc1C(c1cc(F)ccc1F)S(=O)(=O)c1ccc(F)cc1` (stereo not drawn) [Example 112, 5-[(2,5-Difluorophenyl)[(4-fluorophenyl)sulfonyl]methyl]-N-[(2-hydroxyethoxy)methyl]-4-methylpyridine-2-carboxamide], the melting point lay in the range of 175 to 177 °C.

For the compound `CC(=O)OCNC(=O)c1cc(C)c(C(c2cc(F)ccc2F)S(=O)(=O)c2ccc(F)cc2)cn1` (stereo not drawn) [Example 86, [[[5-[(2,5-Difluorophenyl)(4-fluorophenylsulfonyl)methyl]-4-methylpyridin-2-yl]carbonyl]amino]methyl acetate], the melting point was in the range of 111 to 113 °C.

Take `COc1ccc(S(=O)(=O)C(c2cnc(C(=O)O)cc2C)c2cc(F)ccc2F)cc1` (stereo not drawn) [Example 42, 5-[(2,5-Difluorophenyl)[(4-methoxyphenyl)sulfonyl]methyl]-4-methylpyridine-2-carboxylic acid]: the melting point was in the range of 194 to 195 °C.

In the case of `Cc1cc(C(=O)NCO)ncc1C(c1c(F)ccc(F)c1F)S(=O)(=O)c1ccc(C(F)(F)F)cc1` (stereo not drawn) [Example 129, N-(hydroxymethyl)-4-methyl-5-[[[4-(trifluoromethyl)phenyl]sulfonyl](2,3,6-trifluorophenyl)methyl]pyridine-2-carboxamide], the melting point fell in the range of 190 to 192 °C.

In the case of `CC(=O)NC(=O)c1cc(C)c(C(c2cc(F)ccc2F)S(=O)(=O)c2ccc(F)cc2)cn1` (stereo not drawn) [Example 107, N-acetyl-5-[(2,5-difluorophenyl)[(4-fluorophenyl)sulfonyl]methyl]-4-methylpyridine-2-carboxamide], the melting point is 182 to 183 °C.

In turn, `Cc1cc(C(=O)NCO)ncc1C(c1c(F)ccc(F)c1F)S(=O)(=O)c1ccc(C(F)F)nc1` (stereo not drawn) [Example 136, 5-[[[6-(Difluoromethyl)pyridin-3-yl]sulfonyl](2,3,6-trifluorophenyl)methyl]-N-(1-hydroxymethyl)-4-methylpyridine-2-carboxamide] returned a melting point of 181 to 183 °C.

In turn, `Cc1cc(C(=O)N(C)CO)ncc1C(c1cc(F)ccc1F)S(=O)(=O)c1ccc(F)cc1` (stereo not drawn) [Example 133, 5-[(2,5-Difluorophenyl)((4-fluorophenyl)sulfonyl)methyl]-N-(hydroxymethyl)-N,4-dimethylpyridine-2-carboxamide] returned a melting point of 184 to 186 °C.

Consider `Cc1cc(C(=O)NCO)ncc1C(c1c(F)ccc(F)c1F)S(=O)(=O)c1ccc(F)c(F)c1` (stereo not drawn) [Example 122, 5-[[(3,4-Difluorophenyl)sulfonyl](2,3,6-trifluorophenyl)methyl]-N-(hydroxymethyl)-4-methylpyridine-2-carboxamide], for which the melting point lay within 119 to 120 °C.
